From PubChem BioAssay (NCI)
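Cells were grown in 96-well plates and exposed to each compound for 48 hours at five concentrations; endpoints were interpolated linearly between bracketing concentrations, or set to the highest concentration if not reached. GI50 marks 50% less growth. The concentration for full growth arrest is given as TGI.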

What was measured:
Assay in all cases: inhibition of tumour cell growth, NCI panel, 48 h
[1] = test system: UO-31 renal
[2] = test system: A549 NSCLC
[3] = test system: HOP-18 NSCLC
[4] = test system: U251 CNS
[5] = test system: SN12C renal
[6] = test system: CCRF-CEM leukemia
[7] = test system: 786-0 renal
[8] = test system: HCT-15 colon
[9] = test system: HT29 colon
[10] = test system: EKVX NSCLC
[11] = test system: HOP-62 NSCLC
[12] = test system: OVCAR-3 ovarian
[13] = test system: SK-OV-3 ovarian
[14] = test system: KM20L2 colon
[15] = test system: NCI-H226 lung
[16] = test system: SF-295 CNS
[17] = test system: KM12 colon
[18] = test system: ACHN renal
[19] = test system: UACC-257 melanoma
[20] = test system: CAKI-1 renal
[21] = test system: HL-60(TB) leukemia
[22] = test system: COLO 205 colon
[23] = test system: NCI-H23 lung
[24] = test system: UACC-62 melanoma
[25] = test system: XF 498 CNS
[26] = test system: SR leukemia
[27] = test system: MOLT-4 leukemia
[28] = test system: LXFL 529 NSCLC
[29] = test system: RPMI-8226 leukemia
[30] = test system: DLD-1 colon
[31] = test system: OVCAR-4 ovarian
[32] = test system: OVCAR-5 ovarian
[33] = test system: SNB-19 CNS
[34] = test system: SF-268 CNS
[35] = test system: SF-539 CNS
[36] = test system: HCT-116 colon
[37] = test system: MALME-3M melanoma
[38] = test system: HCC-2998 colon
[39] = test system: HOP-92 NSCLC
[40] = test system: SK-MEL-2 melanoma
[41] = test system: NCI-H460 lung
[42] = test system: A498 renal
[43] = test system: LOX IMVI melanoma
[44] = test system: SNB-78 CNS
[45] = test system: TK-10 renal
[46] = test system: SK-MEL-28 melanoma
[47] = test system: OVCAR-8 ovarian
[48] = test system: M14 melanoma
[49] = test system: SK-MEL-5 melanoma
[50] = test system: M19-MEL melanoma
[51] = test system: K-562 leukemia
[52] = test system: NCI-H522 lung
[53] = test system: IGROV1 ovarian
[54] = test system: SW-620 colon
[55] = test system: RXF 393 renal
[56] = test system: DMS 114 small cell lung
[57] = test system: SNB-75 CNS
[58] = test system: DMS 273 small cell lung

In the case of `CC(C)/C=C1\CCC(CN2CCOCC2)C1=O` (configuration not stated), the TGI [1] is reported as 38.6 µM, the TGI [2] is reported as 72.6 µM and the TGI [3] is reported as 31.8 µM. It also gave a TGI [4] of over 56.4 µM, a TGI [5] of 36.5 µM and a TGI [6] of 9.51 µM. The TGI [7] was 8.9 µM, the TGI [8] was 19.2 µM and the TGI [9] was 15.4 µM. For the same molecule, the TGI [10] was 36.8 µM, the TGI [11] was over 100 µM and the TGI [12] was 32.7 µM. It also gave a TGI [13] of over 100 µM, a TGI [14] of 38.2 µM and a TGI [15] of 94.8 µM. The TGI [16] was over 77.7 µM, the TGI [17] was 23.6 µM and the TGI [18] was 32.3 µM. It also gave a TGI [19] of 20.1 µM, a TGI [20] of 8.93 µM and a TGI [21] of 5.58 µM. For the same molecule, the TGI [22] was 22.3 µM, the TGI [23] was 33.9 µM and the TGI [24] was 36.3 µM. It also gave a TGI [25] of 33.4 µM, a TGI [26] of 13.1 µM and a TGI [27] of 10.2 µM. The TGI [28] was 8.24 µM, the TGI [29] was 4.47 µM and the TGI [30] was 8.86 µM. It also gave a TGI [31] of 40 µM, a TGI [32] of 39.4 µM and a TGI [33] of over 100 µM. It also gave a TGI [34] of 52.5 µM, a TGI [35] of 29.3 µM and a TGI [36] of 23.4 µM. For the same molecule, the TGI [37] was 31 µM, the TGI [38] was 36.5 µM and the TGI [39] was 38.9 µM. It also gave a TGI [40] of 35.6 µM, a TGI [41] of over 60.7 µM and a TGI [42] of over 51.3 µM. It also gave a TGI [43] of 53.6 µM, a TGI [44] of 37.4 µM and a TGI [45] of 29.7 µM. The TGI [46] was 32.2 µM, the TGI [47] was over 40.8 µM and the TGI [48] was 26.1 µM. For the same molecule, the TGI [49] was 36.8 µM, the TGI [50] was over 57.2 µM and the TGI [51] was 9.06 µM. The TGI [52] was 3.8 µM, the TGI [53] was 20.8 µM and the TGI [54] was 8.08 µM. The TGI [55] was 14.1 µM.

For `O=C(/C=C(\O)C(=O)O)/C=C(\O)c1ccccc1`, the GI50 [1] was over 1 µM, the TGI [1] was over 1 µM and the GI50 [2] was over 1 µM. For the same molecule, the TGI [2] was over 100 µM, the TGI [3] was over 100 µM and the GI50 [4] was over 1 µM. The TGI [4] was over 100 µM, the GI50 [5] was over 1 µM and the TGI [5] was over 100 µM. For the same molecule, the GI50 [6] was over 1 µM, the TGI [6] was over 100 µM and the GI50 [7] was over 1 µM. For the same molecule, the TGI [7] was over 100 µM, the GI50 [8] was over 1 µM and the TGI [8] was over 100 µM. It also gave a GI50 [9] of over 1 µM, a TGI [9] of over 100 µM and a GI50 [10] of over 1 µM. It also gave a TGI [10] of over 100 µM, a GI50 [11] of over 1 µM and a TGI [11] of over 76.2 µM. It also gave a GI50 [12] of over 1 µM, a TGI [12] of over 46.4 µM and a GI50 [13] of over 1 µM. For the same molecule, the TGI [13] was over 100 µM, the GI50 [14] was over 1 µM and the TGI [14] was over 100 µM. It also gave a GI50 [15] of over 1 µM, a TGI [15] of over 100 µM and a GI50 [56] of over 100 µM. The TGI [56] was over 100 µM, the TGI [16] was over 100 µM and the TGI [17] was over 100 µM. The GI50 [18] was over 1 µM, the TGI [18] was over 100 µM and the GI50 [19] was over 1 µM. It also gave a TGI [19] of over 100 µM, a TGI [20] of over 100 µM and a GI50 [21] of over 1 µM. The TGI [21] was over 100 µM, the GI50 [22] was over 1 µM and the TGI [22] was over 25.9 µM. For the same molecule, the GI50 [23] was over 100 µM, the TGI [23] was over 100 µM and the GI50 [24] was over 1 µM. For the same molecule, the TGI [24] was over 100 µM, the GI50 [25] was over 1 µM and the TGI [25] was over 100 µM. It also gave a GI50 [26] of over 1 µM, a TGI [26] of over 100 µM and a GI50 [27] of over 1 µM. The TGI [27] was over 100 µM, the GI50 [28] was over 1 µM and the TGI [28] was over 100 µM. It also gave a GI50 [29] of over 100 µM, a TGI [29] of over 100 µM and a TGI [30] of over 100 µM. It also gave a GI50 [31] of over 1 µM, a TGI [31] of over 100 µM and a GI50 [32] of over 100 µM. The TGI [32] was over 100 µM, the GI50 [33] was over 1 µM and the TGI [33] was over 100 µM. It also gave a GI50 [34] of over 1 µM, a TGI [34] of over 100 µM and a GI50 [35] of under 1 µM. For the same molecule, the TGI [35] was over 1 µM, the GI50 [36] was over 1 µM and the TGI [36] was over 100 µM. For the same molecule, the GI50 [37] was over 100 µM, the TGI [37] was over 100 µM and the GI50 [38] was over 100 µM. The TGI [38] was over 100 µM, the GI50 [39] was over 1 µM and the TGI [39] was over 1 µM. It also gave a GI50 [40] of over 1 µM, a TGI [40] of over 100 µM and a GI50 [41] of over 1 µM. For the same molecule, the TGI [41] was over 100 µM, the TGI [42] was over 100 µM and the GI50 [57] was over 1 µM. For the same molecule, the TGI [57] was over 54.9 µM, the GI50 [43] was over 1 µM and the TGI [43] was over 100 µM. For the same molecule, the GI50 [44] was over 1 µM, the TGI [44] was over 100 µM and the GI50 [45] was over 1 µM. The TGI [45] was over 100 µM, the GI50 [46] was over 1 µM and the TGI [46] was over 1 µM. The TGI [47] was over 100 µM, the GI50 [48] was over 1 µM and the TGI [48] was over 100 µM. It also gave a GI50 [58] of over 1 µM, a TGI [58] of over 100 µM and a GI50 [49] of over 1 µM. For the same molecule, the TGI [49] was over 1 µM, the GI50 [50] was over 1 µM and the TGI [50] was over 100 µM. The GI50 [51] was over 1 µM, the TGI [51] was over 100 µM and the GI50 [52] was over 1 µM. It also gave a TGI [52] of over 1 µM, a GI50 [53] of over 1 µM and a TGI [53] of over 100 µM. For the same molecule, the TGI [54] was over 100 µM and the TGI [55] was over 100 µM.

In the case of `COc1cc2c(cc1OC)C(C(=O)O)C(c1ccccc1)N(C)C2=O` (configuration not stated), the TGI [1] is reported as over 100 µM, the TGI [2] is reported as over 100 µM and the TGI [3] is reported as over 100 µM. The TGI [4] was over 100 µM, the TGI [5] was over 100 µM and the TGI [6] was over 100 µM. The TGI [7] was over 100 µM, the TGI [9] was over 100 µM and the TGI [10] was over 100 µM. For the same molecule, the TGI [11] was over 100 µM, the TGI [12] was over 100 µM and the TGI [13] was over 100 µM. It also gave a TGI [14] of over 100 µM, a TGI [56] of over 100 µM and a TGI [16] of over 100 µM. It also gave a TGI [17] of over 100 µM, a TGI [18] of over 100 µM and a TGI [19] of over 100 µM. For the same molecule, the TGI [20] was over 100 µM, the TGI [22] was over 100 µM and the TGI [23] was over 100 µM. The TGI [24] was over 100 µM, the TGI [25] was over 100 µM and the TGI [27] was over 100 µM. The TGI [28] was over 100 µM, the TGI [29] was over 100 µM and the TGI [30] was over 100 µM. It also gave a TGI [31] of over 100 µM, a TGI [32] of over 100 µM and a TGI [33] of over 100 µM. The TGI [34] was over 100 µM, the TGI [35] was over 100 µM and the TGI [36] was over 100 µM. For the same molecule, the TGI [37] was over 100 µM, the TGI [38] was over 100 µM and the TGI [40] was over 100 µM. It also gave a TGI [41] of over 100 µM, a TGI [42] of over 100 µM and a TGI [57] of over 100 µM. The TGI [44] was over 100 µM, the TGI [45] was over 100 µM and the TGI [46] was over 100 µM. The TGI [47] was over 100 µM, the TGI [48] was over 100 µM and the TGI [49] was over 100 µM. It also gave a TGI [50] of over 100 µM, a TGI [51] of over 100 µM and a TGI [52] of over 100 µM. The TGI [53] was over 100 µM and the TGI [54] was over 100 µM.
